According to US8343912B2, “Antibiotic compositions for the treatment of gram negative infections” (priority 2008, dated 2013):
≈ marks a conversion by molar mass, not a printed value. Numbered stars: 1 amine (or outer) side, 2 acyl side, 3 side chain; on linkers, the order of the positions; unused ones are H or OH. Bridge positions count the residues as written; N and C are the ends. Square brackets hold non-standard residues; d marks the D form. Peptide text beside a SMILES is read from it. * marks the point of attachment. Octanoyl(6-Me) = CCC(C)CCCCC(=O)*; NH(2-ClPh) = Clc1ccccc1N*; Dab = NCC[CH](N)C(=O)O; CO = O=C([*:1])[*:2]

Legend:
K. pneumonia 21 = assay: MIC, broth microdilution; assay type: cell-based, Klebsiella pneumoniae; conditions: Table 3B
Protocol: (§1) MIC testing was performed according to Clinical and Laboratory Standards Institute (CLSI) M7-A7 (2006) broth microdilution methods. Unless otherwise indicated, MIC values are provided in units of micrograms per milliliter.
(§2) One day prior to testing, individual colonies were isolated by streaking onto rich, non-selective Tryptic Soy agar with 5% lysed sheeps blood (TSAB) with incubation at 35-37° C. for 18-24 hours.
(§3) Cultures were prepared by touching 3-5 colonies into 3 mL of Cation adjusted Mueller Hinton Broth (caMHB) in a 14 mL tube (CaMHB was prepared and sterilized according to manufacturer's specifications). Cultures were grown at 37° C. 200 rpm for approximately four hours prior to density adjustment for addition to the MIC assay.
(§4) OD600 of growing cultures was measured and adjusted to approximately 10^5 colony forming units per mL (CFU/mL) in caMHB for MIC inoculation (approximately OD600 0.001).
(§5) Diluted cultures were used to inoculate 50 μL per well in broth microdilution assays (final volume 100 μl per well; compounds were prepared in two-fold dilutions).
(§6) Plates were incubated 16-20 hrs at 37° C., with shaking at 200 rpm.
(§7) OD600 was determined for all wells. Growth was defined as OD600>0.1. MICs were defined as the lowest concentration producing no visible turbidity (OD600<0.1).

Hygroscopicity = assay type: physicochemical
[1] = Cell culture cytotoxicity assay (ATP bioluminescence, LLC-PK1); assay type: cell-based, rat; conditions: rat; read-out: EC50, rat kidney proximal tubule cell culture cytotoxicity assay
Protocol: (§8) Day 1: 1×10^5 to 2×10^5 cellswere inoculated (Cell line: LLC-PK1) per flask, containing 4 mL/T25 flask of medium DMEM-F12 (50/50) media supplemented with 10% FBS (Fetal Bovine Serum). The cells were then incubated at 37° C., 5% CO2, 80% RH.
(§9) Day 4: The cell cultures were examined to determine 80% confluency. To trypsinize of the 80% confluent flasks, 4 mL of DMEM-F12-10% FBS media was prepared per flask. The media was aspirated from the flask and 5 mL of Versene was added to rinse the flask. The Versene was aspirated and 2 mL of triple Express solution (trypsin solution) was added. The cells were incubated for 5 min at room temperature and examined via microscopy for the rounding of the cells and their detachment. To speed up the reaction, the flask can be incubated at 37° C. for 3 minutes. 4 mL of media (DMEM-F12-10%FBS) was added to stop the reaction. Using a 5 mL pipette, the completed reaction was pipetted up and down to ensure that the cells were properly detached from the flask and from each others. The cell number was counted using a hemocytometer slide. 100 μL of cell suspension was transferred to a tube and 100 μL of Trypan Blue was added. Inoculum for 96 well is 10,000 cells per well. For one 96 well plate, 26.3 μL×110 well=2893 μL total. 2.9 mL of cell suspension was mixed with 8.1 mL of media DMEM-F12-10% FBS and 100 μL was distributed to each well using a multichannel pipetter. The plate was then Incubated for 24 h at 37° C.
(§10) Day 5: DMEM-F12 (no FBS) medium was dispensed into tubes with the test article to achieve final concentrations of […]. The 96 well plate was taken off the incubator and media was removed from each well using multichannel pipetter. 80 μL of serially diluted compounds of Formula (I) was added to each well. Every set of concentration was done in triplicate. Media and positive controls were added to each plate and the plates were incubated for 24 hours at 37° C.
(§11) Day 6: The plates were taken from the incubator, the media was removed from each well, and 100 μL of fresh media DMEM-F12 (this is equivalent to a rinse and the media can be replaced with PBS) was added. The media is then removed and 80 μL of cell lysis solution is added. After 5 minutes, 80 μL of sterile filtered high quality water was added to each well. Using a white or black 96 well reaction plate, 80 μL of 25× diluted ATP mix reagent (Sigma Bioluminescent Somatic Cell Assay Kit [cat #FL-ASC]) was added into one column. 80 μL of diluted ATP standards (dilutions used: 250, 500, 1000, 2000 and 4000) was added and the plate was read immediately in the topcount with a 2 second read time. In another white or black 96 well reaction plate, 80 μL of 25× diluted ATP mix reagent (plate A) was added and 80 μL of lysis-water solution was transferred to each column of plate A. The plate was then read immediately in the topcount with a 2 second read time. This process was repeated for next consecutive plate and the EC50 for certain compounds of Formula I were calculated and provided in Table 4.

[2] = system: Rat kidney proximal tubule cells; assay: as above; assay type: cell-based; conditions: LLC-PK1, 24 hours, ATP readout
Protocol: as §8, §9, §10, §11

K. pneumonia = assay: MIC90, broth microdilution, panel of Gram negative clinical isolates; assay type: cell-based, Klebsiella pneumoniae; conditions: 81 strains; some strains multi-drug resistant
Protocol: (§12) To evaluate the potency and spectrum of compounds of Formula (I), (i.e., Compounds designated 5 and 6), a study was conducted that put together a panel of 455 Gram negative strains, which included multi-drug resistant clinical isolates selected from various surveillance programs. Table 3A lists the strains that were included in the study and the activity of Compound 5, Compound 6, and colistin (polymyxin E, abbreviated PME). Strains with acquired resistance to colistin and/or carbapenems and/or broad spectrum cephalosporins were pre-selected and included in all organism groups evaluated.
as §1, §2, §3, §4, §5, §6, §7

[3] = system: 5 different Gram negative pathogens; assay: Efficacy in 8 animal models with 5 Gram negative pathogens; assay type: in vivo; conditions: 8 models, mouse and rat
Protocol: Compound 5 was tested for efficacy in 8 models (both mouse models and rat models) with 5 different Gram negative pathogens. […]

pH of aqueous solution = assay type: physicochemical; conditions: at 5 mg/mL in water
E. coli 1699 = assay: MIC, broth microdilution; assay type: cell-based, Escherichia coli; conditions: Table 3B
Protocol: as §1, §2, §3, §4, §5, §6, §7

[4] = system: indole-positive Proteae, P. mirabilis, and S. marcescans; assay: In vitro activity against organisms intrinsically resistant to colistin; assay type: cell-based
Protocol: as §12, §1

[5] = system: female cynomolgus monkeys; assay: Seven days of repeated IV administration, kidney findings (QD/BID mg/kg doses); assay type: in vivo, cynomolgus monkey; conditions: 6 mg/kg BID
Protocol: The kidney findings in female cynomolgus monkeys following seven days of repeated IV administration of Compound 5 were evident at dose levels of 6 mg/kg BID, 6 mg/kg QD, and 9 mg/kg QD, and to a lesser degree of severity at 3 and 4.5 mg/kg BID.

[6] = Dissociation constant (pKa)

Structure (SMILES) | MIC K. pneumonia 21 (K. pneumonia 21) [micrograms/mL] | logP (Lipophilicity (Log P)) | Hygroscopicity (Hygroscopicity) | solubility (Solubility profile; ethanol) [µg/mL] | solubility (Solubility profile; water) [µg/mL] | EC50 at 24 h [1] [µg/mL] | EC50 Rat kidney proximal tubule cells [2] [micrograms/ml] | MIC90 K. pneumonia (K. pneumonia) [micrograms/mL] | models in which efficacy was demonstrated [3] | pH (pH of aqueous solution) | MIC E. coli 1699 (E. coli 1699) [micrograms/mL] | activity against organisms intrinsically resistant to colistin [4] | blood urea nitrogen (BUN) and serum creatinine ([5]; 6 mg/kg QD, 9 mg/kg QD) | kidney histopathological changes ([5]; 6 and 9 mg/kg QD, lesser severity at 3 and 4.5 mg/kg BID, 7 days IV) | pKa [6]
CC(C)C[C@@H]1NC(=O)[C@@H](Cc2ccccc2)NC(=O)[C@H](CCN)NC(=O)[C@@H](NC(=O)[C@H](CCN)NC(=O)[C@@H](NC(=O)[C@H](CCN)NC(=O)Nc2ccccc2Cl)[C@@H](C)O)CCNC(=O)[C@H]([C@@H](C)O)NC(=O)[C@H](CCN)NC(=O)[C@H](CCN)NC1=O [Compound 5, (S)-4-amino-N-((2S,3R)-1-((S)-4-amino-1-oxo-1-((3S,6S,9S,12S,15R,18S,21S)-6,9,18-tris(2-aminoethyl)-15-benzyl-3-((R)-1-hydroxyethyl)-12-isobutyl-2,5,8,11,14,17,20-heptaoxo-1,4,7,10,13,16,19-heptaazacyclotricosan-21-ylamino)butan-2-ylamino)-3-hydroxy-1-oxobutan-2-yl)-2-(3-(2-chlorophenyl)ureido)butanamide] ({NH(2-ClPh)-CO}-[Dab]T[Dab][Dab][Dab][dF]L[Dab][Dab]T; lactam 4-C) | 2 | < -1 | Very hygroscopic | 200 (≈ 164 µM) | > 300000 | > 1000 | >1000 | 4 | 7 out of 8 | 5.9, at 5 mg/mL in water | 2 | limited activity | increase | minimal to mild degeneration/necrosis and regeneration of tubular epithelium | 8.17
CCC(C)CCCCC(=O)NC(CCN)C(=O)NC(C(=O)NC(CCN)C(=O)NC1CCNC(=O)C(C(C)O)NC(=O)C(CCN)NC(=O)C(CCN)NC(=O)C(CC(C)C)NC(=O)C(Cc2ccccc2)NC(=O)C(CCN)NC1=O)C(C)O (centres unmarked) [Polymyxin B, polymyxin B, reference compound] ({Octanoyl(6-Me)}-[Dab]T[Dab][Dab][Dab]FL[Dab][Dab]T; lactam 4-C; configuration not given here) |  |  |  |  |  | 318 (≈ 264 µM) |  | 2 |  |  |  |  |  |  | 
